Source: patent publication US20120208809A1, “9H-PYRROLO[2,3-B: 5,4-C'] DIPYRIDINE AZACARBOLINE DERIVATIVES, PREPARATION THEREOF, AND THERAPEUTIC USE THEREOF” (SANOFI, priority 2009, published 2012)

How the values were obtained:
Pim-1 = biological target: T1, Pim-1 (Homo sapiens, UniProt P11309); test: TR-FRET assay of Pim kinase activity (phosphorylation of Bad Ser112), Pim-1; format: biochemical; conditions: ATP 40 μM, read-out: IC50 Pim1
T1 construct: full-length human recombinant His6-labelled Pim-1, Pim-2 or Pim-3 protein; His6; made in house
T1 sequence (P11309 whole entry): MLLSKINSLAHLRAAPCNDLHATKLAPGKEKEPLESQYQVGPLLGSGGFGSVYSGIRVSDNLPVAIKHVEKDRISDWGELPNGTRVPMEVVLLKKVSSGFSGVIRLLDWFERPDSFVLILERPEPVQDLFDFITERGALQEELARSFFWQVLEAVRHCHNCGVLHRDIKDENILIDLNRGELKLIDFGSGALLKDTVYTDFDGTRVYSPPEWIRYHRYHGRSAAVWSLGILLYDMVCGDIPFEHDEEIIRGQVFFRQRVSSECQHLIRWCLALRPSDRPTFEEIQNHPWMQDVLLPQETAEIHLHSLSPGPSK
Experimental: (§1) In order to determine the inhibition of Pim kinase activity, the compounds of the invention are tested in accordance with a routinely-used in-vitro TR-FRET assay (“Time Resolved-Fluorescence Resonance Energy Transfer”). […] For the assay, the following reagents are used:
(§2) Pim kinase—full-length human recombinant His6-labelled Pim-1, Pim-2 or Pim-3 protein (prepared according to J. Mol. Biol. (2005) 348, 183-193); Bad—full-length human recombinant His6-labelled Bad protein (prepared according to J. Mol. Biol. (2005) 348, 183-193); α-His6-APC—mouse monoclonal antibody conjugated to allophycocyanine SureLight™ directed against the His6 label (Perkin-Elmer, No. AD0059H, Waltham, Mass., United States); α-P˜Bad-Eu—mouse monoclonal antibody (Cell Signaling Technology #9296B, Danvers, Mass., United States) directed against phosphoBad (Ser112) (7E11) labelled on request by Perkin-Elmer with the reagent LANCE™ Eu-W1024.
(§3) The assay is based on the LANCE™ technology from Perkin-Elmer: the Eu-labelled antibody binds to phospho-Ser112 and generates a TR-FRET signal by interaction with the […] antibody directed against His6, bound to the His6 label of Bad. The TR-FRET signal is detected using a SpectraMax M5 plate reader (Molecular Devices) with the following settings: λex=340 nm, λem1=615 nm, λem2=665 nm. The ratio of the fluorescence signal at 665 nm to the fluorescence signal at 615 nm is used as the signal reading for the IC50 (calculations based on the 4-parameter logistic model). The assay is performed in 384-well format; the liquid manipulations are performed using a Beckmann 3000 liquid manipulation station. The test compounds are tested at 10 concentration points in duplicate; the highest concentration of compound is typically equal to 30 μM. The ATP concentration is equal to 40 μM.

Pim-2 = biological target: T2, Pim-2 (Homo sapiens, UniProt Q9P1W9); test: TR-FRET assay of Pim kinase activity (phosphorylation of Bad Ser112), Pim-2; format: biochemical; conditions: ATP 40 μM, read-out: IC50 Pim2
T2 construct: full-length human recombinant His6-labelled Pim-1, Pim-2 or Pim-3 protein; His6; made in house
T2 sequence (Q9P1W9 whole entry): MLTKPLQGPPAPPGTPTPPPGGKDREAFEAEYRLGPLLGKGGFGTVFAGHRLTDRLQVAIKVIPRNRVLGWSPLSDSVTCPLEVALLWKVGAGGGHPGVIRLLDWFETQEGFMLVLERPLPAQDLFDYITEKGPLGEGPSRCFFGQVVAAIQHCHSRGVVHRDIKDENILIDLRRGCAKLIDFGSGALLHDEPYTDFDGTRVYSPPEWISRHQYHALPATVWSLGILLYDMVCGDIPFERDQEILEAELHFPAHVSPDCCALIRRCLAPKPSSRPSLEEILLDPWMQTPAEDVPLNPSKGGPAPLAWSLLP
Experimental: as §1, §2, §3

Pim-3 = biological target: T3, Pim-3 (Homo sapiens, UniProt Q86V86); test: TR-FRET assay of Pim kinase activity (phosphorylation of Bad Ser112), Pim-3; format: biochemical; conditions: ATP 40 μM, read-out: IC50 Pim3
T3 construct: full-length human recombinant His6-labelled Pim-1, Pim-2 or Pim-3 protein; His6; made in house
Experimental: as §1, §2, §3

CDK1 = CDK1 (Homo sapiens, UniProt P06493); test: Biochemical results, IC50 CDK1
Sequence of CDK1 (P06493 whole entry, species assumed): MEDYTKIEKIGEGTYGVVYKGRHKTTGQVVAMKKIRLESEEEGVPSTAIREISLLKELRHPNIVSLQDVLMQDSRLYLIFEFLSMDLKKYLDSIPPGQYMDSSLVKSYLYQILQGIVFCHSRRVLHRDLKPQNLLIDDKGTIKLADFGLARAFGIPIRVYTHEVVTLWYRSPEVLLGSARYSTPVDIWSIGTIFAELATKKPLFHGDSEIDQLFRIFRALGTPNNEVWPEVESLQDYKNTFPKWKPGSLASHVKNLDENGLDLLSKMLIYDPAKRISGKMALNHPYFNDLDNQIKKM
Sequence of CDK1 (P14635 whole entry partner, species assumed): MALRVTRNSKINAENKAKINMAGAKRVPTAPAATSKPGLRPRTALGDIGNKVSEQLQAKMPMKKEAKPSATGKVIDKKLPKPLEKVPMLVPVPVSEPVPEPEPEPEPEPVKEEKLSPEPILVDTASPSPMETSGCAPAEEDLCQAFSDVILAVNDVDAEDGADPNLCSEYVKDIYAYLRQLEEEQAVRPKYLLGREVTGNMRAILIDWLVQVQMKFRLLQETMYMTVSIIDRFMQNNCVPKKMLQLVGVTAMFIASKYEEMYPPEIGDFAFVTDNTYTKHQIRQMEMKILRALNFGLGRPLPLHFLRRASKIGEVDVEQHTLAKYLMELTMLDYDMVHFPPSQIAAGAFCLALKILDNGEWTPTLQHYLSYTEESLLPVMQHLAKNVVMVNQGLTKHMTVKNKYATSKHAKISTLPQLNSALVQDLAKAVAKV

PLK1 = PLK1 (Homo sapiens, UniProt P53350); test: Biochemical results, IC50 PLK1
Sequence of PLK1 (P53350 whole entry, species assumed): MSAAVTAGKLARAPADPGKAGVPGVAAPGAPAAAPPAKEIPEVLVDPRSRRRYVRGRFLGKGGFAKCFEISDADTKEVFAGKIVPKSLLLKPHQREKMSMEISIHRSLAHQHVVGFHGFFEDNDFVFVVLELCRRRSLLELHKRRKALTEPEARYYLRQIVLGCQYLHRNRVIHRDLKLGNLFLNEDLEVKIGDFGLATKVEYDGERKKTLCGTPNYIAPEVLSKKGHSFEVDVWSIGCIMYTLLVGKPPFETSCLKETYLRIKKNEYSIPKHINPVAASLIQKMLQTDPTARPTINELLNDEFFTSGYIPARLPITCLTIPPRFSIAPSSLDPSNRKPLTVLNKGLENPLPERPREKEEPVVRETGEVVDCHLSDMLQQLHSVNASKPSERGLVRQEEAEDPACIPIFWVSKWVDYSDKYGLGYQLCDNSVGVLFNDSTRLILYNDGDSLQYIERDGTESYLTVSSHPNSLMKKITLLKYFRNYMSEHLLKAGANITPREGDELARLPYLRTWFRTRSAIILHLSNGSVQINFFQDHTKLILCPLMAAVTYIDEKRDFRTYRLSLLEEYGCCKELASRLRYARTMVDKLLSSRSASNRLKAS

SMILES | IC50 (Pim-1) [nM] | IC50 (Pim-2) [nM] | IC50 (Pim-3) [nM] | IC50 (CDK1) [nM] | IC50 (PLK1) [nM]
CCN1CCC[C@H]1CNC(=O)c1ccc(-c2c(F)cnc3[nH]c4cnc(-c5cccnc5)cc4c23)cc1 [Example 53, N-{[(2S)-1-ethylpyrrolidin-2-yl]methyl}-4-[3-fluoro-6-(pyridin-3-yl)-9H-pyrrolo[2,3-b:5,4-c′]dipyridin-4-yl]benzamide] | < 100 | 100 to 1000 | < 100 | 1000 to 5000 | 100 to 1000
O=C(NCCNc1ccccn1)c1ccc(-c2c(F)cnc3[nH]c4cnc(-c5cccnc5)cc4c23)cc1 [Example 78, 4-[3-fluoro-6-(pyridin-3-yl)-9H-pyrrolo[2,3-b:5,4-c′]dipyridin-4-yl]-N-[2-(pyridin-2-ylamino)ethyl]benzamide] | < 100 | 100 to 1000 | < 100 | 100 to 1000 | < 100
O=C(NCCN1CCCCCC1)c1ccc(-c2c(F)cnc3[nH]c4cnc(-c5cccnc5)cc4c23)cc1 [Example 60, N-[2-(azepan-1-yl)ethyl]-4-[3-fluoro-6-(pyridin-3-yl)-9H-pyrrolo[2,3-b:5,4-c′]dipyridin-4-yl]benzamide] | < 100 | 100 to 1000 | < 100 | 100 to 1000 | 100 to 1000
CCN(CC1CCN(C)C1)C(=O)c1ccc(-c2c(F)cnc3[nH]c4cnc(-c5cccnc5)cc4c23)cc1 (stereo not drawn) [Example 79, N-ethyl-4-[3-fluoro-6-(pyridin-3-yl)-9H-pyrrolo[2,3-b:5,4-c′]dipyridin-4-yl]-N-[(1-methylpyrrolidin-3-yl)methyl]benzamide] | < 100 | 100 to 1000 | < 100 | 1000 to 5000 | 100 to 1000
CC(C)(CNC(=O)c1ccc(-c2c(F)cnc3[nH]c4cnc(-c5cccnc5)cc4c23)cc1)N1CCCC1 [Example 58, 4-[3-fluoro-6-(pyridin-3-yl)-9H-pyrrolo[2,3-b:5,4-c′]dipyridin-4-yl]-N-[2-methyl-2-(pyrrolidin-1-yl)propyl]benzamide] | < 100 | 100 to 1000 | < 100 | 1000 to 5000 | 100 to 1000
O=C(NCc1nnn[nH]1)c1ccc(-c2c(F)cnc3[nH]c4cnc(-c5cccnc5)cc4c23)cc1 [Example 45, 4-[3-fluoro-6-(pyridin-3-yl)-9H-pyrrolo[2,3-b:5,4-c′]dipyridin-4-yl]-N-(1H-tetrazol-5-ylmethyl)benzamide] | 100 to 1000 | > 5000 | 100 to 1000 | 100 to 1000 | < 100
O=C(c1cccc(-c2c(F)cnc3[nH]c4cnc(-c5cccnc5)cc4c23)c1)N1CCOCC1 [Example 15, {3-[3-fluoro-6-(pyridin-3-yl)-9H-pyrrolo[2,3-b:5,4-c′]dipyridin-4-yl]phenyl}(morpholin-4-yl)methanone] | 100 to 1000 | > 5000 | 1000 to 5000 |  | 
COCCNC(=O)c1ccc(-c2c(F)cnc3[nH]c4cnc(-c5cccnc5)cc4c23)cc1 [Example 14, 4-[3-fluoro-6-(pyridin-3-yl)-9H-pyrrolo[2,3-b:5,4-c′]dipyridin-4-yl]-N-(2-methoxyethyl)benzamide] | < 100 | 1000 to 5000 | 100 to 1000 |  | 
CN1CCN(C(=O)c2ccc(-c3c(F)cnc4[nH]c5cnc(-c6cccnc6)cc5c34)cc2)CC1 [Example 16, {4-[3-fluoro-6-(pyridin-3-yl)-9H-pyrrolo[2,3-b:5,4-c′]dipyridin-4-yl]phenyl}(4-methylpiperazin-1-yl)methanone] | < 100 | 1000 to 5000 | 100 to 1000 |  | 
COCCCNC(=O)c1ccc(-c2c(F)cnc3[nH]c4cnc(-c5cccnc5)cc4c23)cc1 [Example 17, 4-[3-fluoro-6-(pyridin-3-yl)-9H-pyrrolo[2,3-b:5,4-c′]dipyridin-4-yl]-N-(3-methoxypropyl)benzamide] | < 100 | 1000 to 5000 | 100 to 1000 |  | 
O=C(c1ccc(-c2c(F)cnc3[nH]c4cnc(-c5cccnc5)cc4c23)cc1)N1CCOCC1 [Example 13, {4-[3-fluoro-6-(pyridin-3-yl)-9H-pyrrolo[2,3-b:5,4-c′]dipyridin-4-yl]phenyl}(morpholin-4-yl)methanone] | < 100 | 1000 to 5000 | 100 to 1000 |  | 

Now from value to molecule:

IC50 (Pim-1) [nM] | IC50 (Pim-2) [nM] | IC50 (Pim-3) [nM] | IC50 (CDK1) [nM] | IC50 (PLK1) [nM] | SMILES
< 100 | < 100 | < 100 |  |  | N[C@@H]1CCC[C@H]1NC(=O)c1ccc(-c2c(F)cnc3[nH]c4cnc(-c5cccnc5)cc4c23)cc1 [Example 86, N-[(1R,2R)-2-aminocyclopentyl]-4-[3-fluoro-6-(pyridin-3-yl)-9H-pyrrolo[2,3-b:5,4-c′]dipyridin-4-yl]benzamide]
< 100 | < 100 | < 100 | 100 to 1000 | 100 to 1000 | CNCCNC(=O)c1ccc(-c2c(F)cnc3[nH]c4cnc(-c5cccnc5)cc4c23)cc1 [Example 88, 4-[3-fluoro-6-(pyridin-3-yl)-9H-pyrrolo[2,3-b:5,4-c′]dipyridin-4-yl]-N-[2-(methylamino)ethyl]benzamide]
< 100 | 100 to 1000 | < 100 | 100 to 1000 | 100 to 1000 | O=C(c1ccc(-c2c(F)cnc3[nH]c4cnc(-c5cccnc5)cc4c23)cc1)N1CCC(N2CCCC2)C1 (stereo not drawn) [Example 80, 1.3′-bipyrrolidin-1′-yl{4-[3-fluoro-6-(pyridin-3-yl)-9H-pyrrolo[2,3-b:5,4-c′]dipyridin-4-yl]phenyl}methanone]
100 to 1000 | 1000 to 5000 | 100 to 1000 |  |  | CN(C)CCNC(=O)c1ccc(-c2c(F)cnc3[nH]c4cnc(-c5cccnc5)cc4c23)cn1 [Example 112, N-[2-(dimethylamino)ethyl]-5-[3-fluoro-6-(pyridin-3-yl)-9H-pyrrolo[2,3-b:5,4-c′]dipyridin-4-yl]pyridine-2-carboxamide]
< 100 | 100 to 1000 | < 100 | 100 to 1000 | 100 to 1000 | Cn1cc(-c2cc3c(cn2)[nH]c2ncc(F)c(-c4ccc(C(N)=O)cc4)c23)cn1 [Example 104, 4-[3-fluoro-6-(1-methyl-1H-pyrazol-4-yl)-9H-pyrrolo[2,3-b:5,4-c′]dipyridin-4-yl]benzamide]
< 100 | < 100 | < 100 |  |  | N[C@@H]1CCCC[C@H]1NC(=O)c1ccc(-c2c(F)cnc3[nH]c4cnc(-c5cccnc5)cc4c23)cc1 [Example 83, N-[(1R,2R)-2-aminocyclohexyl]-4-[3-fluoro-6-(pyridin-3-yl)-9H-pyrrolo[2,3-b:5,4-c′]dipyridin-4-yl]benzamide]
< 100 | < 100 | < 100 |  |  | N[C@H]1CCC[C@@H]1NC(=O)c1ccc(-c2c(F)cnc3[nH]c4cnc(-c5cccnc5)cc4c23)cc1 [Example 85, N-[(1S,2S)-2-aminocyclopentyl]-4-[3-fluoro-6-(pyridin-3-yl)-9H-pyrrolo[2,3-b:5,4-c′]dipyridin-4-yl]benzamide]
< 100 | 100 to 1000 | < 100 |  |  | CN(C)CCNC(=O)c1ccc(-c2c(F)cnc3[nH]c4cnc(-c5cccnc5)cc4c23)cc1F [Example 113, N-[2-(dimethylamino)ethyl]-2-fluoro-4-[3-fluoro-6-(pyridin-3-yl)-9H-pyrrolo[2,3-b:5,4-c′]dipyridin-4-yl]benzamide]
